Test results published in PubChem BioAssay (NCI).
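Compound exposure: 48 hours, 5 concentrations, 96-well plates. TGI is the concentration that stops growth completely.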

Assays:
Test in all cases: NCI tumour cell line growth inhibition, 48 h
NCI-H23 lung = test system: NCI-H23 lung
SNB-75 CNS = test system: SNB-75 CNS
MOLT-4 leukemia = test system: MOLT-4 leukemia
SR leukemia = test system: SR leukemia
TK-10 renal = test system: TK-10 renal
MDA-N = test system: MDA-N
HCC-2998 colon = test system: HCC-2998 colon
UACC-257 melanoma = test system: UACC-257 melanoma
U251 CNS = test system: U251 CNS
HL-60(TB) leukemia = test system: HL-60(TB) leukemia
MDA-MB-231 breast = test system: MDA-MB-231 breast
A549 NSCLC = test system: A549 NSCLC
UO-31 renal = test system: UO-31 renal
HT29 colon = test system: HT29 colon
SN12C renal = test system: SN12C renal
RPMI-8226 leukemia = test system: RPMI-8226 leukemia
SK-OV-3 ovarian = test system: SK-OV-3 ovarian
NCI-H226 lung = test system: NCI-H226 lung
A498 renal = test system: A498 renal
K-562 leukemia = test system: K-562 leukemia

Compound	TGI (NCI-H23 lung) [µM]	TGI (SNB-75 CNS) [µM]	TGI (MOLT-4 leukemia) [µM]	TGI (SR leukemia) [µM]	TGI (TK-10 renal) [µM]	TGI (MDA-N) [µM]	TGI (HCC-2998 colon) [µM]	TGI (UACC-257 melanoma) [µM]	TGI (U251 CNS) [µM]	TGI (HL-60(TB) leukemia) [µM]	TGI (MDA-MB-231 breast) [µM]	TGI (A549 NSCLC) [µM]	TGI (UO-31 renal) [µM]	TGI (HT29 colon) [µM]	TGI (SN12C renal) [µM]	TGI (RPMI-8226 leukemia) [µM]	TGI (SK-OV-3 ovarian) [µM]	TGI (NCI-H226 lung) [µM]	TGI (A498 renal) [µM]	TGI (K-562 leukemia) [µM]
CCCCc1ccc(-n2sc3ncc([N+](=O)[O-])cc3c2=O)cc1	24.1	57.2	53.7	45.9	61.9	28	27.6	50.9	29.1	38	23.5	27.3	35.5	26.7	32.7	32.5	> 100	51.4	–	–
COc1ccc(-c2nnc3n(Cc4ccccc4)c4ccccc4n3c2=O)cc1	> 100	41.8	> 100	> 100	58.1	> 100	> 100	> 100	55	> 100	> 100	> 100	> 100	> 100	> 100	–	–	97.4	99.6	–
O=c1c(C2=NCCC2)c(-c2ccc[nH]2)[nH]n1-c1ccccc1	> 100	> 100	> 100	–	> 100	> 100	–	> 100	> 100	> 100	> 100	> 100	> 100	> 100	> 100	> 100	> 100	> 100	> 100	> 100
COC(=O)c1ccc(NCc2c(O)ccc(O)c2Br)cc1Cl	32.9	70.2	40.9	–	–	26	39.4	83.8	30.4	4.52	29.4	> 100	29.8	40.2	25.7	> 100	> 100	> 100	> 100	–
COC(=O)C1(C(=O)OC)N=C(C)OC1c1ccccn1 (stereo unspecified)	> 100	> 100	> 100	> 100	> 100	> 100	> 100	> 100	> 100	> 100	–	> 100	> 100	–	> 100	> 100	> 100	> 100	> 100	> 100
CCOC(=O)/C(N=Nc1ccc(-n2c(C)nc3ccc(Br)cc3c2=O)cc1)=C(/C)O	> 100	86.7	> 100	> 100	> 100	> 100	–	> 100	> 100	> 100	> 100	> 100	> 100	> 100	> 100	> 100	> 100	> 100	> 100	> 100
N#CCCN(CCC#N)c1ccc(C(N=Nc2ccccc2)=Nc2ccc(Cl)cc2)cc1	> 100	> 100	> 100	–	> 100	> 100	> 100	> 100	> 100	–	> 100	> 100	> 100	> 100	> 100	> 100	> 100	> 100	> 100	> 100
COc1ccc(/C=C/C(=N/NC(=O)N/N=C(/C=C/c2ccc(OC)cc2)C(C)(C)CN2CCCCC2)C(C)(C)CN2CCCCC2)cc1	> 10	2.89	4.18	0.679	3.67	3.06	3.42	3.31	3.31	3.22	–	3.49	2.95	3.11	5.83	4.23	3.49	3.02	3.73	1.89
COC(=O)[C@@]1(Cc2ccc(O)cc2)C[C@@H]2Cc3ccccc3N2N1	> 100	–	> 100	> 100	> 100	> 100	–	71.7	> 100	–	> 100	> 100	> 100	> 100	> 100	> 100	> 100	> 100	97.3	–
CCOP(=O)(Nc1ccccc1P(=O)(OCC)OCC)OCC	> 100	> 100	> 100	–	> 100	> 100	> 100	> 100	> 100	–	> 100	> 100	> 100	> 100	–	> 100	> 100	–	> 100	> 100
